Among the test systems are ACHN renal; CAKI-1 renal; CCRF-CEM leukemia; HCC-2998 colon; HT29 colon; IGROV1 ovarian; MDA-MB-435; RXF 393 renal; SF-539 CNS; UACC-257 melanoma.
Holding throughout (assay): NCI-60 cell line screen, 48 h

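All cell lines were grown in 96-well plates and treated with compound for 48 hours. The concentration for 50% growth inhibition is given as GI50. TGI is the concentration that stops growth completely.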 Some results are limits rather than exact numbers.

With `COc1cc2ccc1OCc1cccc(n1)COc1ccc(cc1OC)C=NCCNCCNCCN=C2`, the TGI in the assay on ACHN renal, in the assay with CAKI-1 renal, in the assay on CCRF-CEM leukemia, in the assay with HCC-2998 colon, in the assay with HT29 colon and in the assay on IGROV1 ovarian was over 100 µM throughout. The TGI with MDA-MB-435, in the assay with RXF 393 renal, in the assay with SF-539 CNS and in the assay on UACC-257 melanoma was over 100 µM each time.
As for `O=C(NCCNc1nccc(-c2c(-c3cccc(O)c3)nc3sccn23)n1)c1ccccc1`, the GI50 was 6.43 µM in the assay on ACHN renal; 5.92 µM in the assay with CAKI-1 renal; 3.38 µM with CCRF-CEM leukemia; 13.8 µM in the assay on HCC-2998 colon; 6.8 µM in the assay with HT29 colon; 3.61 µM in the assay on IGROV1 ovarian. Further, the GI50 in the assay with MDA-MB-435 was 0.578 µM; in the assay with RXF 393 renal it was 4.14 µM; in the assay on SF-539 CNS, 11.3 µM; with UACC-257 melanoma, 0.489 µM. For the same molecule, the TGI stood at 34.9 µM in the assay with ACHN renal; 29.6 µM in the assay on CAKI-1 renal; 34.1 µM in the assay with CCRF-CEM leukemia; 31.2 µM in the assay with HCC-2998 colon; 38.3 µM with HT29 colon; 50.9 µM in the assay on IGROV1 ovarian. Also, the TGI in the assay on MDA-MB-435 amounted to 12.8 µM; in the assay with RXF 393 renal, 22.2 µM; in the assay on SF-539 CNS it was 36.8 µM; with UACC-257 melanoma it was 18.5 µM.
With `CO[C@@H]1C[C@H](OC(N)=O)[C@@H]2C=C[C@@H]3/C=C(C)/C=C/[C@@H](C)[C@H](/C(C)=C/[C@@H](C)NC(C)=O)OC(=O)/C=C/C=C(C)\C=C\[C@]3(C)[C@@H]2C1`, the TGI with ACHN renal came to 0.613 µM; in the assay with CAKI-1 renal, 0.167 µM; in the assay on CCRF-CEM leukemia, 7.59 µM; in the assay with HCC-2998 colon it was 0.664 µM; in the assay on HT29 colon, 0.278 µM; in the assay with IGROV1 ovarian it was 0.471 µM. For the same molecule, the TGI with MDA-MB-435 was 3.11 µM; in the assay with RXF 393 renal, 0.455 µM; in the assay with SF-539 CNS, 0.0846 µM; in the assay on UACC-257 melanoma it was 0.0866 µM.
Consider `Cc1cc(O)c(/C=N/C(=S)Nc2ccccc2)c(=O)o1`, for which the TGI in the assay on ACHN renal, with CAKI-1 renal, in the assay on CCRF-CEM leukemia, with HCC-2998 colon, with HT29 colon and in the assay with IGROV1 ovarian was over 100 µM each time. The TGI with MDA-MB-435, in the assay with RXF 393 renal, with SF-539 CNS and in the assay on UACC-257 melanoma was over 100 µM throughout.
Turning to `CCN(CC)CCCNc1[nH]ncc2c(C)c3nc4ccc(OC)cc4c3cc12`, the TGI in the assay with ACHN renal was determined as 5.95 µM; with CAKI-1 renal, 29.3 µM; in the assay with CCRF-CEM leukemia, 2 µM; with HCC-2998 colon it was 2.33 µM; in the assay on HT29 colon, 6.04 µM; in the assay on IGROV1 ovarian, 2.91 µM. Also, the TGI in the assay on MDA-MB-435 came out at 2.46 µM; in the assay with RXF 393 renal, 3.37 µM; with SF-539 CNS, 1.16 µM; in the assay on UACC-257 melanoma it was 7.18 µM.
Take `C=CCN(c1cc(OC)c2[nH]c(C(=O)OCC)c(C)c2c1[N+](=O)[O-])S(C)(=O)=O`: the TGI in the assay on ACHN renal is 69.5 µM; in the assay with CAKI-1 renal, over 100 µM; in the assay with CCRF-CEM leukemia, over 100 µM; in the assay with HCC-2998 colon it was over 100 µM; in the assay with HT29 colon it was 35.5 µM; in the assay with IGROV1 ovarian, over 100 µM. The TGI in the assay with MDA-MB-435 is 64.7 µM; in the assay with RXF 393 renal, 45.9 µM; in the assay on SF-539 CNS it was over 100 µM; with UACC-257 melanoma it was over 100 µM.
For `NC(Cc1ncccn1)C(=O)O` (stereo not given), the TGI in the assay on ACHN renal, in the assay with CAKI-1 renal, with CCRF-CEM leukemia, in the assay with HCC-2998 colon, in the assay on HT29 colon and in the assay on IGROV1 ovarian was over 100 µM throughout. The TGI in the assay on MDA-MB-435, in the assay with RXF 393 renal, in the assay on SF-539 CNS and in the assay with UACC-257 melanoma was over 100 µM each time.
Consider `COc1cccc2cc(C(C)=O)c(=O)oc12`, for which the TGI with ACHN renal, with CAKI-1 renal, with CCRF-CEM leukemia, with HCC-2998 colon, with HT29 colon and in the assay on IGROV1 ovarian was over 100 µM in each case. Moreover, the TGI in the assay on MDA-MB-435, in the assay with RXF 393 renal, in the assay on SF-539 CNS and with UACC-257 melanoma was over 100 µM each time.
For `O=C(Nc1cccc2ccccc12)c1ccccc1`, the TGI in the assay on ACHN renal, in the assay with CAKI-1 renal, in the assay on CCRF-CEM leukemia, in the assay with HCC-2998 colon, with HT29 colon and with IGROV1 ovarian was over 100 µM throughout. Moreover, the TGI in the assay on MDA-MB-435, with RXF 393 renal, in the assay with SF-539 CNS and in the assay on UACC-257 melanoma was over 100 µM in each case.
In the case of `O=S(=O)(/N=C(\NO)Nc1ccc(Cl)cc1)c1ccccc1`, the TGI with ACHN renal is 36.3 µM; with CAKI-1 renal, 23 µM; with CCRF-CEM leukemia, over 100 µM; in the assay on HCC-2998 colon, 22 µM; in the assay on HT29 colon, 41.3 µM; in the assay with IGROV1 ovarian, 62.4 µM. The TGI was over 64 µM with MDA-MB-435, 40 µM in the assay with RXF 393 renal, over 30.6 µM in the assay on SF-539 CNS and 26.6 µM in the assay with UACC-257 melanoma.
As to `c1ccc2c(c1)ccn1ccc3c4ccccc4nc-3c21`, the TGI was found to be 1.87 µM in the assay on ACHN renal; 2.09 µM with CAKI-1 renal; 1.43 µM with CCRF-CEM leukemia; 1.16 µM with HCC-2998 colon; 1.58 µM with HT29 colon; 2.8 µM with IGROV1 ovarian. Also, the TGI in the assay on MDA-MB-435 was 1.65 µM; in the assay on RXF 393 renal, 2.39 µM; in the assay with SF-539 CNS, 1.48 µM; with UACC-257 melanoma, 2.92 µM.
In the case of `CCOC(=O)c1c(N2CCCC2)ncn(C)c1=S`, the TGI in the assay on ACHN renal, in the assay on CAKI-1 renal, with CCRF-CEM leukemia, in the assay on HCC-2998 colon, with HT29 colon and in the assay with IGROV1 ovarian was over 100 µM in each case. The TGI in the assay with MDA-MB-435, with RXF 393 renal, with SF-539 CNS and in the assay on UACC-257 melanoma was over 100 µM each time.
On to `Cc1cccc2c(N)c3cccc(C(=O)NCC[N+]4(Cc5ccc([N+](=O)[O-])cc5)CCOCC4)c3nc12`, for which the TGI was over 100 µM in the assay on ACHN renal; over 100 µM in the assay on CAKI-1 renal; over 100 µM in the assay on CCRF-CEM leukemia; 60.5 µM in the assay on HCC-2998 colon; over 100 µM in the assay on HT29 colon; over 100 µM in the assay on IGROV1 ovarian. For the same molecule, the TGI in the assay on MDA-MB-435, with RXF 393 renal, with SF-539 CNS and with UACC-257 melanoma was over 100 µM each time.
Consider `CSc1c(CC(=O)Nc2ccc(Cl)cc2)n(Cc2ccccc2)c2ccccc12`, for which the TGI with ACHN renal is over 100 µM; in the assay on CAKI-1 renal, over 100 µM; with CCRF-CEM leukemia it was over 100 µM; with HCC-2998 colon it was 88 µM; in the assay on HT29 colon, over 100 µM; in the assay with IGROV1 ovarian it was over 100 µM. For the same molecule, the TGI with MDA-MB-435 is over 100 µM; in the assay on RXF 393 renal it was 30.1 µM; with SF-539 CNS, 9.6 µM; in the assay on UACC-257 melanoma it was over 100 µM.
With `CC(C)(C)C1=CC(=C2C=Cc3ccccc3O2)C=C(C(C)(C)C)C1=O`, the TGI was 19.2 µM in the assay on ACHN renal; 29.6 µM in the assay with CAKI-1 renal; 6.12 µM with CCRF-CEM leukemia; 2.99 µM with HCC-2998 colon; 17.3 µM in the assay on HT29 colon; over 52.8 µM in the assay with IGROV1 ovarian. Moreover, the TGI is 5.11 µM with MDA-MB-435, 7.71 µM in the assay with RXF 393 renal, 20 µM in the assay on SF-539 CNS and 13.2 µM with UACC-257 melanoma.
Turning to `COc1nc2c(c(=O)n1C)N=C(c1ccc(Cl)cc1)CC(c1ccccc1)N2` (stereo not given), the TGI in the assay with ACHN renal is 54 µM; with CAKI-1 renal it was 74.5 µM; in the assay on CCRF-CEM leukemia, 69.3 µM; in the assay on HCC-2998 colon, 35.8 µM; in the assay on HT29 colon it was 47.4 µM; in the assay with IGROV1 ovarian, 51.5 µM. For the same molecule, the TGI with MDA-MB-435 was over 100 µM; in the assay on RXF 393 renal, 55 µM; with SF-539 CNS, 31.5 µM; with UACC-257 melanoma, 67.9 µM.
For `CCn1c2ccccc2c2ccc(C3C(C(=O)OC)=C(C)NC(C)=C3C(=O)OC)cc21`, the TGI in the assay on ACHN renal, in the assay with CAKI-1 renal, with CCRF-CEM leukemia, with HCC-2998 colon, with HT29 colon and with IGROV1 ovarian was over 100 µM throughout. Also, the TGI in the assay with MDA-MB-435 is over 100 µM; in the assay with RXF 393 renal it was 49.4 µM; in the assay with SF-539 CNS, over 100 µM; with UACC-257 melanoma, over 100 µM.
As for `C(=Nc1ccc(-c2nc3ccccc3[nH]2)cc1)c1ccco1`, the TGI with ACHN renal, in the assay with CAKI-1 renal, in the assay with CCRF-CEM leukemia, in the assay on HCC-2998 colon, in the assay with HT29 colon and in the assay on IGROV1 ovarian was over 100 µM in each case. Also, the TGI in the assay on MDA-MB-435, in the assay with RXF 393 renal, in the assay with SF-539 CNS and in the assay with UACC-257 melanoma was over 100 µM in each case.
With `COc1ccc2c3c1OC1C34CCN(C)C(C2)C4=CC(I)C1(OC)OC` (stereo not given), the TGI in the assay with ACHN renal came to 23.4 µM; with CAKI-1 renal it was 25.6 µM; in the assay with CCRF-CEM leukemia, 5.87 µM; in the assay on HCC-2998 colon, 21.9 µM; in the assay on HT29 colon, 22 µM; with IGROV1 ovarian, 22.2 µM. The TGI in the assay with MDA-MB-435 came to 15.5 µM; in the assay on RXF 393 renal, 23.1 µM; in the assay on SF-539 CNS it was 40.6 µM; in the assay on UACC-257 melanoma, 26.9 µM.
Take `O=[N+]([O-])/C(C(Cl)=C(Cl)Cl)=C(\N1CCCCC1)n1nnc2ccccc21`: the TGI was 42.3 µM in the assay with ACHN renal; over 55.9 µM in the assay with CAKI-1 renal; 14.5 µM in the assay on CCRF-CEM leukemia; 26.2 µM with HCC-2998 colon; 39.3 µM in the assay with HT29 colon; 34.1 µM in the assay with IGROV1 ovarian. The TGI in the assay on MDA-MB-435 is over 100 µM; in the assay on RXF 393 renal it was 43.6 µM; in the assay with SF-539 CNS, 33.6 µM; in the assay on UACC-257 melanoma it was 37.2 µM.
With `Cc1ccc2[nH]c3[nH]c(=S)[nH]c(=O)c3c2c1`, the TGI in the assay on ACHN renal, with CAKI-1 renal, in the assay with CCRF-CEM leukemia, in the assay with HCC-2998 colon, in the assay on HT29 colon and in the assay on IGROV1 ovarian was over 100 µM in each case. For the same molecule, the TGI with MDA-MB-435, in the assay on RXF 393 renal, in the assay with SF-539 CNS and in the assay with UACC-257 melanoma was over 100 µM in each case.
As to `C=CCCCCOC1C=CC(O)C(CO)O1` (stereo not given), the TGI in the assay on ACHN renal, with CAKI-1 renal, in the assay on CCRF-CEM leukemia, in the assay with HCC-2998 colon, in the assay on HT29 colon and in the assay on IGROV1 ovarian was over 100 µM in each case. For the same molecule, the TGI in the assay with MDA-MB-435, with RXF 393 renal, in the assay with SF-539 CNS and in the assay on UACC-257 melanoma was over 100 µM each time.

The values are drawn from PubChem BioAssay (NCI).
